One may read the IC50 as the midpoint of a concentration-inhibition curve.

Assay [1] addresses T1, DYRK1A (Homo sapiens, UniProt Q13627).
T1 construct: expressed in transfected cells; host or cells: 293T
Put plainly: Inhibition of Tau protein (Thr212) phosphorylation in 293T cells overexpressing Tau and DYRK1A. The class given is cell-based. The settings on record: for IC50: 293T cells overexpressing Tau and DYRK1A.

Assay [2] addresses T1, DYRK1A. Put plainly: NFAT signaling reporter (NFAT-RE-luciferase), cell-based DYRK1A efficacy evaluation in 293T cells. The settings on record: for luciferase increase effect / activity level compared with harmine and CX-4945: 10 μM; for luciferase increase effect: 293T cells, NFAT-RE-luciferase reporter, IM + PMA, DYRK1A overexpressed, among 570 candidates; for activity level compared with harmine and CX-4945: same reporter conditions; for EC50 of luciferase increase effect, fold lower than harmine and CX-4945: NFAT reporter, concentration gradient (FIG. 4); for luciferase activity compared with condition without DYRK1A overexpression: treated with 3 μM, concentration gradient, same conditions. The method, then:
With respect to the 570 compounds identified as candidate DYRK1A inhibitors through the virtual screening, a secondary effect evaluation was carried out using NFAT signaling reporter which is the already well-established cell-based DYRK1A effect evaluation system (FIG. 3). NFAT signaling reporter has a very high level of dependence on DYRK1A, and thus is effective in the identifying experiment of the proper candidate DYRK1A inhibitors. DYRK1A is known to regulate calcineurin/Nuclear Factor of Activated T cells (NFAT) signals and play an important role in the stage of human development process. NFATc1 transcription factor is usually present as a protein that is phosphorylated in the cytoplasm when the Ca^2+ concentration of the cells is increased, NFATc1 is dephosphorylated by calcineurin phosphatase which is a Ca^2+-dependent protein, and NFATc1 is moved into the nucleus. NFATc1 which has entered into the nucleus and protein partner NFATn form a transcription complex, and the complex binds to the promoter of the target gene to induce the target gene expression. In contrast, DYRK1A phosphorylates NFATc1 to inhibit the movement of NFATc1 into the nucleus, and results in the inhibition of the expression of the target gene. The DYRK1A-inhibitory effect of the 570 candidates was confirmed through the transcription activity of NFATc1, and for this, a luciferase reporter containing NFAT response element (NFAT-RE) useful to measure the transcription activity of NFATc1 was used. A NFAT-RE-luciferase reporter was over-expressed in 293T cells, and was then treated with Ionomycin (IM) and phorbol 12-myristate 13-acetate (PMA) to increase the intracellular concentration of Ca^2+. As a result, the expression of luciferase was increased sharply. […] If the candidate drug treatment in this condition inhibits DYRK1A, the luciferase will be increased.
A general note: A reporter such as luciferase makes a cellular process visible.

A further assay addresses C-met kinase (Homo sapiens, UniProt P08581). The settings on record: existing studies; ATP competitive manner; cited from earlier work.
Assay [3] deals with T1, DYRK1A. Put plainly: In vitro kinase assay with separated and purified DYRK1A protein. The class given is biochemical.
The next assay deals with GSK3β (Homo sapiens, UniProt P49841). Put plainly: In vitro CMGC kinase assay, GSK3β. The class given is biochemical. The settings on record: in vitro kinase panel; next to DYRK1A.
GSK3β, sequence (P49841 whole entry, species assumed): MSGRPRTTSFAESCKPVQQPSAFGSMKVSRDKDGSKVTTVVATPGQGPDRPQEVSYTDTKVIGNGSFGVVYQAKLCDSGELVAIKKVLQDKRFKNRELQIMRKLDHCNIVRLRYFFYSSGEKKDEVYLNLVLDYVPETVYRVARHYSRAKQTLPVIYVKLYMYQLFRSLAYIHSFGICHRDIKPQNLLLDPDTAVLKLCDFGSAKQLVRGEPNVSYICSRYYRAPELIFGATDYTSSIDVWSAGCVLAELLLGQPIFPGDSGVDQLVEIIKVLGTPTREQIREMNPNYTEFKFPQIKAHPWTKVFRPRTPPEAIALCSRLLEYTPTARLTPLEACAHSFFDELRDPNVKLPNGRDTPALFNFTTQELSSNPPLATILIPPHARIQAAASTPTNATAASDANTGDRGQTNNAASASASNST

C-met kinase, sequence (P08581 25-1390): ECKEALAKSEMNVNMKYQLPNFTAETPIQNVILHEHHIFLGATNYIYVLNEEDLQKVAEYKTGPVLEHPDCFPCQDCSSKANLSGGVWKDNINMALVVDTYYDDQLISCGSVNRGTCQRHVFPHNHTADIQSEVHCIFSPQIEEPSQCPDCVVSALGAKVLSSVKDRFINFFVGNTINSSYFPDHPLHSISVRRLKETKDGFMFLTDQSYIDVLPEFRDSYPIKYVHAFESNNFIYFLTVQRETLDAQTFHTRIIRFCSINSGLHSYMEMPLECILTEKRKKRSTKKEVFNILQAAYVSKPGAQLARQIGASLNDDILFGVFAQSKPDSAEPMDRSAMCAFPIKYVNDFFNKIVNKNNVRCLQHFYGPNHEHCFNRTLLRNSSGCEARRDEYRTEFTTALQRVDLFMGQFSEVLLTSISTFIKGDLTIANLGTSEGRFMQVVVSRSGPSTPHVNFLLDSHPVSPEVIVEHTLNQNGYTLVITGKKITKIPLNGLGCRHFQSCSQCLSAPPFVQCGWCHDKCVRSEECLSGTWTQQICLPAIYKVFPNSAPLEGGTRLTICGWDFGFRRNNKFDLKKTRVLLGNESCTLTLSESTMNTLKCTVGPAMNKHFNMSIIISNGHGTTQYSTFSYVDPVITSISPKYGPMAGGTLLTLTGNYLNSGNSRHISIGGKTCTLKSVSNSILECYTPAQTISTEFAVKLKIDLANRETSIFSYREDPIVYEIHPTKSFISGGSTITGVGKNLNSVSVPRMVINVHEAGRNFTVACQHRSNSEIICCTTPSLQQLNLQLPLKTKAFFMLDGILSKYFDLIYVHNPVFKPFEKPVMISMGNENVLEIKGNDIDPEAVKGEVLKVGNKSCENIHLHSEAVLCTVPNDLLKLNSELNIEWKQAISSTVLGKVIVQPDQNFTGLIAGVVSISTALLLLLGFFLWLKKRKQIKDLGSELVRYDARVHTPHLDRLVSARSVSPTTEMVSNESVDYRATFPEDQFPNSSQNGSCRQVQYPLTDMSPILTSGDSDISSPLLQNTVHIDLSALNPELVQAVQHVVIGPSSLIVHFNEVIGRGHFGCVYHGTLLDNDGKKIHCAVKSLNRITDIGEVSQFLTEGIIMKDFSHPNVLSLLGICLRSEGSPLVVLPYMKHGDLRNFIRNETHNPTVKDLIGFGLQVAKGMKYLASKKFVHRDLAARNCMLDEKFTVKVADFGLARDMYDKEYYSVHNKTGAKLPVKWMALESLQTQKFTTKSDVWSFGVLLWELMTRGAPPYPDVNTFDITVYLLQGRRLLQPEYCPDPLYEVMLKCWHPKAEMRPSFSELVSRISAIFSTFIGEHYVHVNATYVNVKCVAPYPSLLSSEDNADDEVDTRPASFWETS

In turn, `CCN1/C(=C/C(C)=O)Sc2ccc(OC(C)=O)cc21` [proINDY, reference compound] came in with an IC50 against DYRK1A [1] of about 3000 nM.
In the case of `Nc1ncc(-c2cnn(C3CCNCC3)c2)cc1-c1nc2cnccc2o1` [formula 3], at DYRK1A [2], the luciferase increase effect entry was “highest luciferase increase effect”; the “activity level compared with harmine and CX-4945” value is given as “clearly higher”; the “EC50 of luciferase increase effect, fold lower than harmine and CX-4945” value amounted to 10 times; the “luciferase activity compared with condition without DYRK1A overexpression” value is “higher than the luciferase activity of the condition that DYRK1A was not overexpressed”. Besides, on C-met kinase, the C-met kinase inhibition entry is recorded as “inhibitors of the C-met kinase”.
As to `CC(=O)N1CCC(n2cc(-c3cnc(N)c(-c4nc5cnccc5o4)c3)cn2)CC1` [formula 2], on DYRK1A [2], the luciferase increase effect result is recorded as “highest luciferase increase effect”; the “activity level compared with harmine and CX-4945” value was “clearly higher”; the “EC50 of luciferase increase effect, fold lower than harmine and CX-4945” value came out at 10 times; the “luciferase activity compared with condition without DYRK1A overexpression” value is recorded as “higher than the luciferase activity of the condition that DYRK1A was not overexpressed”. The compound further returned an IC50 at DYRK1A [1] of about 50 nM. For the same compound, on DYRK1A [1] (same experimental conditions), the “inhibitory effect on Tau phosphorylation, times stronger than harmine, INDY and proINDY” value was 10-60 times. Besides, the inhibition at 0.1 µM on DYRK1A [3] (100 nM concentration, read-out: inhibitory effect on DYRK1A) was about 95%. In addition, the “rank of inhibitory effect among DYRK family and CMGC kinases” value on DYRK1A [3] (in vitro kinase panel (FIG. 6)) is listed as “strongest inhibitory effect on DYRK1A”. For the same compound, on DYRK1A [3] (predicted from inhibition at 100 nM), the IC50 is about 10 nM. Further, the “inhibitory effect on GSK3β” value against GSK3β was “high inhibitory effect”. Also, the C-met kinase inhibition result on C-met kinase is given as “inhibitors of the C-met kinase”.
On to `Cn1cc(-c2cnc(N)c(-c3nc4cnccc4o3)c2)cn1` [formula 4], for which, on DYRK1A [2], the luciferase increase effect entry was “highest luciferase increase effect”; the “activity level compared with harmine and CX-4945” value is reported as “clearly higher”.

These data come from patent US10765669B2, “Pharmaceutical composition for preventing or treating DYRK-related diseases, containing pyridine-based compound as active ingredient” (KOREA RESEARCH INSTITUTE OF BIOSCIENCE AND BIOTECHNOLOGY, priority 2016, dated 2020).
